Tests used:
[1] = target: T1, human glucocorticoid receptor (GR) (Homo sapiens (Human), UniProt P04150); assay: GRE Agonist Assay (ChagoK1 18:7:2 s4/GRE MMTV-GRE-LacZ reporter cell line); format: cell-based; settings: for Emax at 1 µM: ChaGo-K-1, relative to full agonist effect of dexamethasone, read-out: TA agonist Observed max Effect at 1 μM (%); for TA agonist pEC50: transactivation in agonist mode, ChagoK1 GRE-LacZ reporter cells, 24 hours
Description: GRE Agonist Assay A reporter cell line (ChagoK1 18:7:2 s4/GRE) was established by stable transfection of the human bronchogenic carcinoma cell line, ChaGo K1 (ATCC: HTB 168) with a MMTV-GRE-LacZ reporter construct. The generated cell line allows for identification of compounds showing agonist activity at the human glucocorticoid receptor (GR) via induction of LacZ gene expression. Ligand-activated GR binds to the Glucocorticoid Response Element (GRE) in the promoter of the LacZ gene and transcription is initiated. The resulting beta-galactosidase activity is measured through a colour reaction (change in absorbance). Cryo-preserved ChagoK1 18:7:2 s4/GRE cells were suspended in RPMI medium with 10% FBS, 1% NEAA and 1% sodium pyruvate, and seeded as 50000 cells/200 ul/well in 96-well plates and cultured at 37° C. with 5% CO2 and 95% humidity for 24 hours. 1 μl compound was added at different concentrations to the cells and incubated for another 24 hours. […] The reaction was then terminated by addition of 100 μl stop solution (300 mM glycine, 15 mM EDTA, pH 11.3, adjusted with NaOH). […]) Where A=min Y, B=max Y, C=log EC50 and D=Slope factor

[2] = target: T1, human glucocorticoid receptor (GR); assay: GRE Antagonist Assay (ChagoK1 18:7:2 s4/GRE reporter cells pre-stimulated with dexamethasone); format: cell-based; settings: for Emax at 1 µM: ChaGo-K-1, relative to full antagonist effect of Mifepristone (RU486), read-out: TA antagonist Observed max Effect at 1 μM (%); for TA antagonist pIC50: transactivation in antagonist mode, pre-stimulated with dexamethasone 70 nM
Description: GRE Antagonist Assay A reporter cell line (ChagoK1 18:7:2 s4/GRE) was established by stable transfection of the human bronchogenic carcinoma celline, ChaGo K1 (ATCC: HTB 168) with a MMTV-GRE-LacZ reporter construct. The generated cell line allows for identification of compounds showing antagonist activity at the human glucocorticoid receptor (GR) via reduction of LacZ gene expression. Dexamethasone-activated GR binds to the Glucocorticoid Response Element (GRE) in the promoter of the LacZ gene and transcription is initiated. Antagonistic properties of compounds are assessed as beta-galactosidase intensity reduction from pre-stimulation with dexamethasone through a colour reaction (change in absorbance). Cryo-preserved ChagoK1 18:7:2 s4/GRE cells were suspended in RPMI medium with 10% FBS, 1% NEAA and 1% sodium pyruvate, and seeded as 50000 cells/200 ul/well in 96-well plates and cultured at 37° C. with 5% CO2 and 95% humidity for 24 hr. […] The reaction was then terminated by addition of 100 μl stop solution (300 mM glycine, 15 mM EDTA, pH 11.3, adjusted with NaOH). The plates were measured at 420 nm for absorbance in a SpectraMax reader (Molecular Device). […]) Where A=min Y, B=max Y, C=log IC50 and D=Slope factor

T1 sequence (P04150 whole entry): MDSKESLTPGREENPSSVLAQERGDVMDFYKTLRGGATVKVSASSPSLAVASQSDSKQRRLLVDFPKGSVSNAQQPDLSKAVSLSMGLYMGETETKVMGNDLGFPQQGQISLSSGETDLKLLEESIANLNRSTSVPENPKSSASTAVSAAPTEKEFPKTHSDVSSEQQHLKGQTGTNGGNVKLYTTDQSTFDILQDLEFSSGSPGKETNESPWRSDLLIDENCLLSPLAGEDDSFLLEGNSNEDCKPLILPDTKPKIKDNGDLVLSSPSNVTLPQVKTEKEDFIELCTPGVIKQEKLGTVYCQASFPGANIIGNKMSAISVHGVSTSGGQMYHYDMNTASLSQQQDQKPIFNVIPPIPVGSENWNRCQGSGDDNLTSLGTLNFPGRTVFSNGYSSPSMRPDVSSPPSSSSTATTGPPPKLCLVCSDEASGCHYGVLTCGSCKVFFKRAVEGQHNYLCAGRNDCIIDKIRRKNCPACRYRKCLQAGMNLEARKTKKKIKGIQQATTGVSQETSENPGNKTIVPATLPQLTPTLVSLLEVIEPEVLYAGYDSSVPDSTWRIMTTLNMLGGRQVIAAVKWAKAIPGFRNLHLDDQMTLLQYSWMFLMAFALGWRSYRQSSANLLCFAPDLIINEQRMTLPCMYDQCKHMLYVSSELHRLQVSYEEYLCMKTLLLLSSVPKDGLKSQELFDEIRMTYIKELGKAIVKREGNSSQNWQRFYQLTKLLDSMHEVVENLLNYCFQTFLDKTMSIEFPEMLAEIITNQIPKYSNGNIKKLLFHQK

SMILES	Emax at 1 µM [1]	TA agonist pEC50 [1]	Emax at 1 µM [2]	TA antagonist pIC50 [2]
CC(C)[C@H](NC(=O)C(C)(F)F)[C@H](Oc1ccc2c(cnn2-c2ccc(=O)n(C)c2)c1)c1cc(F)cc(Cl)c1 [Example 19, N-[(1R,2S)-1-(3-chloro-5-fluorophenyl)-3-methyl-1-{[1-(1-methyl-6-oxo-1,6-dihydropyridin-3-yl)-1H-indazol-5-yl]oxy}butan-2-yl]-2,2-difluoropropanamide]	38%	8.5	58%	7.6
CC(C)[C@H](NC(=O)C(C)(F)F)[C@H](Oc1ccc2c(cnn2-c2ccc(=O)n(C)c2)c1)c1cc(Cl)cc(Cl)c1 [Example 8, N-[(1R,2S)-1-(3,5-dichlorophenyl)-3-methyl-1-{[1-(1-methyl-6-oxo-1,6-dihydropyridin-3-yl)-1H-indazol-5-yl]oxy}butan-2-yl]-2,2-difluoropropanamide]	36%	7.7	56%	6.8
CC(C)[C@H](NC(=O)C(F)(F)F)[C@H](Oc1ccc2c(cnn2-c2ccc(=O)n(C)c2)c1)c1ccc(Cl)c(F)c1 [Example 17, N-[(1R,2S)-1-(4-chloro-3-fluorophenyl)-3-methyl-1-{[1-(1-methyl-6-oxo-1,6-dihydropyridin-3-yl)-1H-indazol-5-yl]oxy}butan-2-yl]-2,2,2-trifluoroacetamide]	32%	8.4	79%	7.4
CC(C)[C@H](NC(=O)C(C)(F)F)[C@H](Oc1ccc2c(cnn2-c2ccc(=O)n(C)c2)c1)c1ccc(OC(F)(F)F)cc1 [Example 9, 2,2-difluoro-N-{(1R,2S)-3-methyl-1-{[1-(1-methyl-6-oxo-1,6-dihydropyridin-3-yl)-1H-indazol-5-yl]oxy}-1-[4-(trifluoromethoxy)phenyl]butan-2-yl}propanamide]	22%	7.7	63%	6.9
CC(C)[C@H](NC(=O)C(C)(F)F)[C@H](Oc1ccc2c(cnn2-c2ccc(=O)n(C)c2)c1)c1ccc(OC(F)F)cc1 [Example 11, N-[(1R,2S)-1-[4-(difluoromethoxy)phenyl]-3-methyl-1-{[1-(1-methyl-6-oxo-1,6-dihydropyridin-3-yl)-1H-indazol-5-yl]oxy}butan-2-yl]-2,2-difluoropropanamide]	28%	8.1	62%	6.7
CC(C)[C@H](NC(=O)C(F)(F)F)[C@H](Oc1ccc2c(cnn2-c2ccc(=O)n(C)c2)c1)c1cc(F)cc(F)c1 [Example 4]	42%	8.7	51%	8.8
CC(C)[C@H](NC(=O)C(C)(F)F)[C@H](Oc1ccc2c(cnn2-c2ccc(=O)n(C)c2)c1)c1ccc(Cl)c(F)c1 [Example 20, N-[(1R,2S)-1-(4-chloro-3-fluorophenyl)-3-methyl-1-{[1-(1-methyl-6-oxo-1,6-dihydropyridin-3-yl)-1H-indazol-5-yl]oxy}butan-2-yl]-2,2-difluoropropanamide]	43%	8.3	66%	7.3
CC(C)[C@H](NC(=O)C(F)(F)F)[C@H](Oc1cc2cnn(-c3ccc(=O)n(C)c3)c2cc1Cl)c1ccccc1 [Example 22, N-[(1R,2S)-1-{[6-chloro-1-(1-methyl-6-oxo-1,6-dihydropyridin-3-yl)-1H-indazol-5-yl]oxy}-3-methyl-1-phenylbutan-2-yl]-2,2,2-trifluoroacetamide]	37%	8.5	56%	7.3
CC(C)[C@H](NC(=O)C(C)(F)F)[C@H](Oc1ccc2c(cnn2-c2ccc(=O)n(C)c2)c1)c1ccc(C(F)(F)F)cc1 [Example 10, 2,2-difluoro-N-{(1R,2S)-3-methyl-1-{[1-(1-methyl-6-oxo-1,6-dihydropyridin-3-yl)-1H-indazol-5-yl]oxy}-1-[4-(trifluoromethyl)phenyl]butan-2-yl}propanamide]	40%	8.1	51%	7.0
CC(C)[C@H](NC(=O)C(F)(F)F)[C@H](Oc1ccc2c(cnn2-c2ccc(=O)n(C)c2)c1)c1ccccc1 [Example 2, 2,2,2-trifluoro-N-[(1R,2S)-3-methyl-1-{[1-(1-methyl-6-oxo-1,6-dihydropyridin-3-yl)-1H-indazol-5-yl]oxy}-1-phenylbutan-2-yl]acetamide]	25%		67%	
CCn1cc(-n2ncc3cc(O[C@H](c4ccccc4)[C@@H](NC(=O)C(C)(F)F)C(C)C)ccc32)ccc1=O [Example 23, N-[(1R,2S)-1-{[1-(1-ethyl-6-oxo-1,6-dihydropyridin-3-yl)-1H-indazol-5-yl]oxy}-3-methyl-1-phenylbutan-2-yl]-2,2-difluoropropanamide]	14%	7.6	70%	6.4
CC(C)[C@H](NC(=O)C(C)(F)F)[C@H](Oc1ccc2c(cnn2-c2ccc(=O)n(C)c2)c1)c1ccc(Cl)cc1 [Example 7, N-[(1R,2S)-1-(4-chlorophenyl)-3-methyl-1-{[1-(1-methyl-6-oxo-1,6-dihydropyridin-3-yl)-1H-indazol-5-yl]oxy}butan-2-yl]-2,2-difluoropropanamide]	46%	8.1	54%	7.1
Cc1cc2c(cnn2-c2ccc(=O)n(C)c2)cc1O[C@H](c1ccccc1)[C@@H](NC(=O)C(C)(F)F)C(C)C [Example 12, 2,2-difluoro-N-[(1R,2S)-3-methyl-1-{[6-methyl-1-(1-methyl-6-oxo-1,6-dihydropyridin-3-yl)-1H-indazol-5-yl]oxy}-1-phenylbutan-2-yl]propanamide]	46%	8.4	48%	7.1
CC(C)[C@H](NC(=O)C(C)(F)F)[C@H](Oc1cc2cnn(-c3ccc(=O)n(C)c3)c2cc1Cl)c1ccccc1 [Example 21, N-[(1R,2S)-1-{[6-chloro-1-(1-methyl-6-oxo-1,6-dihydropyridin-3-yl)-1H-indazol-5-yl]oxy}-3-methyl-1-phenylbutan-2-yl]-2,2-difluoropropanamide]	42%	8.3	48%	7.3
CC(C)[C@H](NC(=O)C(F)(F)F)[C@H](Oc1ccc2c(cnn2-c2ccc(=O)n(C)c2)c1)c1ccc(OC(F)F)cc1 [Example 16, N-[(1R,2S)-1-[4-(difluoromethoxy)phenyl]-3-methyl-1-{[1-(1-methyl-6-oxo-1,6-dihydropyridin-3-yl)-1H-indazol-5-yl]oxy}butan-2-yl]-2,2,2-trifluoroacetamide]	20%	8.0	75%	6.6
CC(C)[C@H](NC(=O)C(F)(F)F)[C@H](Oc1ccc2c(cnn2-c2ccc(=O)n(C)c2)c1)c1cc(Cl)cc(Cl)c1 [Example 14, N-[(1R,2S)-1-(3,5-dichlorophenyl)-3-methyl-1-{[1-(1-methyl-6-oxo-1,6-dihydropyridin-3-yl)-1H-indazol-5-yl]oxy}butan-2-yl]-2,2,2-trifluoroacetamide]	20%	7.7	65%	6.9
CC(C)[C@H](NC(=O)C(F)(F)F)[C@H](Oc1ccc2c(cnn2-c2ccc(=O)n(C)c2)c1)c1ccc(C(F)(F)F)cc1 [Example 15, 2,2,2-trifluoro-N-{(1R,2S)-3-methyl-1-{[1-(1-methyl-6-oxo-1,6-dihydropyridin-3-yl)-1H-indazol-5-yl]oxy}-1-[4-(trifluoromethyl)phenyl]butan-2-yl}acetamide]	27%	8.2	64%	7.3

Source: patent publication US10196374B2 (AstraZeneca AB, priority 2014, dated 2019)
